Reference: the supplement of paper PMC7695840
Several values for one entry are separate records, joined by “and”; a condition that tells them apart may be missing. Equal values may be shown once. Where a name gives a salt, the structure may show the parent alone.

What was measured:
[1] = test system: Staphylococcus aureus MW2 (mecA+); test: IC50 (growth, competition assay); settings: cefoxitin: subinhibitory
Summary of the method: (§1)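 Signals from DsRed (540/590) and GFP (485/520) were scaled on every plate between single-strain control medians, with No Treatment then set to 0.5. The cells were a 1:1 mix of pre-induced fluorescent S. aureus MW2 strains with and without the resistance gene, grown unshaken for 20 h at 37 °C and 90% humidity in LB in 1536-well plates under a subinhibitory drug dose set each day. Each strain's IC50 was defined as the dose halving the No Treatment signal, or the maximal signal.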

[2] = test system: Staphylococcus aureus MW2 delta-mecA (mecA-); test: IC50 (growth, competition assay); settings: cefoxitin: subinhibitory
Summary of the method: as §1

SMILES	IC50 ([1]; fluorescent label: DsRed)	IC50 ([1]; fluorescent label: GFP)	IC50 ([2]; fluorescent label: DsRed)	IC50 ([2]; fluorescent label: GFP) [µM]
Clc1ccccc1C(c1ccccc1)(c1ccccc1)n1ccnc1 [Clotrimazole]	16.1 µM	15.8 µM	< 9.85 µM	< 9.85
CCn1cc(C(=O)O)c(=O)c2cc3c(cc21)OCO3 [Oxolinic acid]	18.3 µM	16.1 µM	15.1 µM	14.6
CCOC(=O)CCC(=O)O[C@H]1[C@H](O[C@@H]2[C@@H](C)[C@H](O[C@H]3C[C@@](C)(OC)[C@@H](O)[C@H](C)O3)[C@@H](C)C(=O)O[C@H](CC)[C@@](C)(O)[C@H](O)[C@@H](C)C(=O)[C@H](C)C[C@@]2(C)O)O[C@H](C)C[C@@H]1N(C)C [Erythromycin Ethylsuccinate]	< 9.85 µM	< 9.85 µM	< 9.85 µM	< 9.85
Cc1coc2c1C(=O)C(=O)c1c-2ccc2c1CCCC2(C)C [Tanshinone IIA (Tanshinone B)]	7.87 µM and 35.3 µM	41.1 µM and 32.8 µM	3.7 µM and 13.9 µM	–
CCn1cc(C(=O)O)c(=O)c2cc(F)c(N3CCNCC3)nc21 [PENETREX]	< 9.85 µM	< 9.85 µM	< 9.85 µM	< 9.85
CSc1ccc2c(c1)N(CCC1CCCCN1C)c1ccccc1S2 (stereo not drawn) [MELLARIL]	66.9 µM	87.4 µM	18.9 µM	13.9
CN[C@H]1CC[C@@H](c2ccc(Cl)c(Cl)c2)c2ccccc21 [Sertraline hydrochloride]	96.4 µM	77.9 µM	22.8 µM	33.7
O=C1c2ccccc2-c2nc3nonc3nc21 [SMER 3]	65.9 µM	> 150 µM	20.4 µM	< 9.85
CCN1CCN(c2cc3c(cc2F)c(=O)c(C(=O)O)cn3C2CC2)CC1 [BAYTRIL]	< 9.85 µM	< 9.85 µM	< 9.85 µM	< 9.85
CC(C)(C)c1ccc(S(=O)(=O)/C=C/C#N)cc1 [Bay 11-7085]	< 9.85 µM	< 9.85 µM	< 9.85 µM	< 9.85
C/C(=C\C(=O)OCCCCCCCCC(=O)O)C[C@@H]1OC[C@H](C[C@@H]2O[C@H]2[C@@H](C)[C@H](C)O)[C@@H](O)[C@H]1O [BACTROBAN]	< 9.85 µM	< 9.85 µM	< 9.85 µM	< 9.85
O=c1cc(-c2ccc(O)c(O)c2)oc2cc(O)cc(O)c12 [Luteolin]	57 µM	56.6 µM	27.6 µM	20
CC[C@@H](C(=O)[C@@H](C)[C@@H](O)[C@H](C)[C@@H]1O[C@@H]([C@@H](CC)C(=O)O)CC[C@@H]1C)[C@H]1O[C@]2(C=C[C@@H](O)[C@]3(CC[C@@](C)([C@H]4CC[C@](O)(CC)[C@H](C)O4)O3)O2)[C@H](C)C[C@@H]1C [KOKCISAN]	31.9 µM	< 9.85 µM	< 9.85 µM	32.4
Cc1cc(SCc2sc(-c3ccc(C(F)(F)F)c(F)c3)nc2C)ccc1OCC(=O)O [GW0742]	11.6 µM	15.1 µM	< 9.85 µM	< 9.85
N[C@@H](C(=O)N[C@@H]1C(=O)N2C(C(=O)O)=C(Cl)CS[C@H]12)c1ccccc1 [Cefaclor (Ceclor)]	7.22 µM	7.26 µM	< 0.498 µM	< 0.498
COc1cc(/C=C/C(=O)CC(=O)/C=C/c2ccc(O)c(OC)c2)ccc1O [CURCUMIN]	26.8 µM	50.1 µM	< 9.85 µM	< 9.85
CN(CC(=O)N(Cc1ccc(C2CCCCC2)cc1)c1ccc(C(=O)O)cc1)S(=O)(=O)c1c(F)c(F)c(F)c(F)c1F [SH-4-54]	< 9.85 µM	11.5 µM	< 9.85 µM	< 9.85
Cc1ccc(S(=O)(=O)N[C@@H](Cc2ccccc2)C(=O)CCl)cc1 [N-p-Tosyl-L-phenylalanine chloromethyl ketone]	< 9.85 µM	< 9.85 µM	< 9.85 µM	< 9.85
C[CH2][Hg][S]c1ccccc1C(=O)[O-].[Na+] [MERTHIOLATE]	< 9.85 µM	< 9.85 µM	< 9.85 µM	< 9.85
COC(=O)Nc1ccc(-c2nc(N3CCOCC3)c3cnn(C4CCN(Cc5cccnc5)CC4)c3n2)cc1 [WYE-687]	49.6 µM	74.8 µM	15.1 µM	< 9.85
Clc1ccc(C(Cn2ccnc2)OCc2ccsc2Cl)c(Cl)c1 (stereo not drawn) [Tioconazole]	29.7 µM	17.8 µM	3.9 µM	14.2
Cc1ccc(S(=O)(=O)c2ccc([N+](=O)[O-])o2)cc1	< 9.85 µM	< 9.85 µM	< 9.85 µM	< 9.85
Cc1cc2nc3c(=O)[nH]c(=O)nc-3n(C[C@H](O)[C@H](O)[C@H](O)CO)c2cc1C [Riboflavin (Vitamin B2)]	> 150 µM	> 150 µM	> 150 µM	> 150

SMILES	IC50 ([1]; fluorescent label: DsRed)	IC50 ([1]; fluorescent label: GFP)	IC50 ([2]; fluorescent label: DsRed)	IC50 ([2]; fluorescent label: GFP) [µM]
CC(C)(C)c1cc(C=C(C#N)C#N)cc(C(C)(C)C)c1O [Tyrphostin A9]	< 9.85 µM	26 µM	35.4 µM	< 9.85
O=C1NC(c2cccc([N+](=O)[O-])c2)=CCN1c1ccccc1O [Icilin]	63.3 µM	54.4 µM	19.3 µM	25.5
Clc1ccc(CO/N=C(\Cn2ccnc2)c2ccc(Cl)cc2Cl)c(Cl)c1 [OXISTAT]	35.3 µM	43.3 µM	30.4 µM	17.3
CN1CCN(CCCN2c3ccccc3Sc3ccc(C(F)(F)F)cc32)CC1 [Trifluoperazine 2HCl]	56.9 µM	57.1 µM	16.5 µM	14.5
O=C1OC(c2ccc(O)cc2)(c2ccc(O)cc2)c2ccccc21 [EXLAX]	112 µM	52.1 µM	49.7 µM	59
COC1=C(OC)C(=O)C(CCCCCCCCCCO)=C(C)C1=O [IDEBENONE]	22.8 µM	28.8 µM	15.5 µM	15
CCOC(=O)c1ccc(N2NC(=O)C(=Cc3ccc([N+](=O)[O-])o3)C2=O)cc1 [PYR-41]	58.8 µM	79.3 µM	24.1 µM	19
O=C(Nc1ccc([N+](=O)[O-])cc1Cl)c1cc(Cl)ccc1O [NICLOSIDE]	< 9.85 µM	< 9.85 µM	< 9.85 µM	< 9.85
c1ccc(-c2ccc(C(c3ccccc3)n3ccnc3)cc2)cc1 (stereo not drawn) [MYCOSPOR]	15.5 µM	19.1 µM	16.8 µM	10.5
O=C(Nc1ccccc1)Nc1ccc(-c2ccc(C(=O)[C@@H]3CCC[C@H]3C(=O)O)cc2)cc1	22.7 µM	41.4 µM	< 9.85 µM	< 9.85
CC(C)(Oc1ccc(C2CC2(Cl)Cl)cc1)C(=O)O (stereo not drawn) [Ciprofibrate]	93.1 µM	107 µM	21.6 µM	30.6
COC(=O)c1c(C)c2c(c(C)c1O)OC(=O)c1c(C)c(Cl)c(O)c(Cl)c1O2 [LEOIDIN]	< 9.85 µM	< 9.85 µM	< 9.85 µM	< 9.85
O=c1c(O)c(-c2ccc(O)c(O)c2)oc2cc(O)cc(O)c12 [Quercetin dihydrate (Sophoretin)]	58.2 µM	53.4 µM	18.7 µM	11.1
O=C(Nc1ncc([N+](=O)[O-])s1)c1ccc([N+](=O)[O-])c(Cl)c1	< 9.85 µM	< 9.85 µM	13.2 µM	15.2
O=C(/C=C/c1ccc(O)c(O)c1)OCCc1ccccc1 [Caffeic acid phenethyl ester]	57.7 µM	88.4 µM	22.9 µM	19.4
CC1(C)C=Cc2c(c3c(c4c(=O)c(-c5ccc(O)c(O)c5)coc24)OC(C)(C)CC3)O1 [ISOPOMIFERIN]	27 µM	26.6 µM	11.8 µM	< 9.85
CC(C)c1ccc2c(c1)CC[C@H]1[C@](C)(CN)CCC[C@]21C [18-AMINOABIETA-8,11,13-TRIENE SULFATE]	62.5 µM	79.2 µM	55.7 µM	55.8
Cc1onc(-c2ccccc2)c1C(=O)N[C@@H]1C(=O)N2[C@@H]1SC(C)(C)[C@@H]2C(=O)O [BACTOCILL]	< 9.85 µM	< 9.85 µM	< 9.85 µM	< 9.85
CCc1cc2c(cc1CC)CC(NC[C@H](O)c1ccc(O)c3[nH]c(=O)ccc13)C2 [Indacaterol Maleate]	71.1 µM	91.4 µM	53.8 µM	32.2
CCC[C@@H]1C[C@@H](C(=O)N[C@@H]([C@H]2O[C@H](SC)[C@H](O)[C@@H](O)[C@H]2O)[C@@H](C)O)N(C)C1 [LINCOCIN]	< 9.85 µM	< 9.85 µM	< 9.85 µM	< 9.85
Cc1ccc(C(=O)c2cc(O)c(O)c([N+](=O)[O-])c2)cc1 [Tolcapone]	< 9.85 µM	14.4 µM	< 9.85 µM	< 9.85
CSc1ccc2c(c1)C(N1CCN(C)CC1)Cc1ccccc1S2 (stereo not drawn) [Methiothepin mesylate]	56.7 µM	55.3 µM	21.3 µM	19.1
O=C(O)c1cn(-c2ccc(F)cc2)c2cc(N3CCNCC3)c(F)cc2c1=O [Sarafloxacin HCl]	< 0.498 µM	< 0.498 µM	< 0.498 µM	< 0.498
